{"source": "paper PMC6516043", "about": "“Functional Analysis of the Chemosensory Protein GmolCSP8 From the Oriental Fruit Moth, Grapholita molesta (Busck) (Lepidoptera: Tortricidae)” (Frontiers in Physiology, 2019)", "type_in_all_cases": "binding", "key": {"GmolCSP8-V40A": {"target": "GmolCSP8-V40A (Grapholita molesta, UniProt A0A0M4FML8, V55A)", "sequence (A0A0M4FML8 entry or part of it V55A)": "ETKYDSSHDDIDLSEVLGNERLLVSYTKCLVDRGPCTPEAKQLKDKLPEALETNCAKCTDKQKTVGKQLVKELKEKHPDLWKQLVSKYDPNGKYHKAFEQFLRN", "assay": "Titration of protein with fluorescent probe 1-NPN, mutant V40A", "description": "(§1) To determine whether GmolCSP8 is involved in odorant binding, fluorescence competitive binding assays were performed ([Zhong et al., 2012]). The fluorescence spectra were recorded using a fluorescence spectrophotometer (F-4500, Hitachi, Tokyo, Japan) in a 1 cm light path fluorimeter quartz cuvette with 10 nm slits for excitation and 20 nm slits for emission. The selected chemicals are listed in Table 2, and included four sex pheromone components and 34 volatiles from different host plants (peach and pear trees) of G. molesta based on previous investigations ([Natale et al., 2004]; [Lu et al., 2012]; [Najar-Rodriguez et al., 2013b]). […] The fluorescent probe was excited at 337 nm and emission spectra were recorded from 370 to 550 nm. […] Dissociation constants (Kd) of protein to 1-NPN were calculated by non-linear regression, using GraphPad Prism 4.00 software (GraphPad Software Inc.). The inhibition constants (Ki) of the competitors were determined using the corresponding IC50 values (concentration of competitor that reduced the initial fluorescence intensity by half) based on the following equation: Ki = [IC50]/(1+[1-NPN]/K1-NPN), where [1-NPN] is the free concentration of 1-NPN and K1-NPN is the dissociation constant of the complex GmolCSP8/1-NPN. […]"}, "GmolCSP8-L80A": {"target": "GmolCSP8-L80A (Grapholita molesta, UniProt A0A0M4FML8, L95A)", "sequence (A0A0M4FML8 entry or part of it L95A)": "as the sequence (A0A0M4FML8 entry or part of it V55A) above, with A40V, L80A counted along it", "assay": "Titration of protein with fluorescent probe 1-NPN, mutant L80A", "description": "as §1"}, "GmolCSP8-T27A": {"target": "GmolCSP8-T27A (Grapholita molesta, UniProt A0A0M4FML8, T42A)", "sequence (A0A0M4FML8 entry or part of it T42A)": "as the sequence (A0A0M4FML8 entry or part of it V55A) above, with T27A, A40V counted along it", "assay": "Titration of protein with fluorescent probe 1-NPN, mutant T27A", "description": "as §1"}, "GmolCSP8-L30A": {"target": "GmolCSP8-L30A (Grapholita molesta, UniProt A0A0M4FML8, L45A)", "sequence (A0A0M4FML8 entry or part of it L45A)": "as the sequence (A0A0M4FML8 entry or part of it V55A) above, with L30A, A40V counted along it", "assay": "Titration of protein with fluorescent probe 1-NPN, mutant L30A", "description": "as §1"}, "rGmolCSP8": {"target": "rGmolCSP8 (Grapholita molesta, UniProt A0A0M4FML8)", "sequence (A0A0M4FML8 entry or part of it)": "as the sequence (A0A0M4FML8 entry or part of it V55A) above, with A40V counted along it", "assay": "Titration of protein with fluorescent probe 1-NPN, wild-type", "settings": "wild-type rGmolCSP8, 2 μM protein, pH 7.4; read-out: Kd (dissociation constant) of 1-NPN", "description": "To determine whether GmolCSP8 is involved in odorant binding, fluorescence competitive binding assays were performed ([Zhong et al., 2012]). The fluorescence spectra were recorded using a fluorescence spectrophotometer (F-4500, Hitachi, Tokyo, Japan) in a 1 cm light path fluorimeter quartz cuvette with 10 nm slits for excitation and 20 nm slits for emission. The selected chemicals are listed in Table 2, and included four sex pheromone components and 34 volatiles from different host plants (peach and pear trees) of G. molesta based on previous investigations ([Natale et al., 2004]; [Lu et al., 2012]; [Najar-Rodriguez et al., 2013b]). […] The fluorescent probe was excited at 337 nm and emission spectra were recorded from 370 to 550 nm. […] Dissociation constants (Kd) of protein to 1-NPN were calculated by non-linear regression, using GraphPad Prism 4.00 software (GraphPad Software Inc.). The inhibition constants (Ki) of the competitors were determined using the corresponding IC50 values (concentration of competitor that reduced the initial fluorescence intensity by half) based on the following equation: Ki = [IC50]/(1+[1-NPN]/K1-NPN), where [1-NPN] is the free concentration of 1-NPN and K1-NPN is the dissociation constant of the complex GmolCSP8/1-NPN.\nFIGURE 5 Binding curve and relative Scatchard plot of 1-NPN to rGmolCSP8. […] The calculated dissociation constant of rGmolCSP8 was 13.85 μM. […]"}}, "data": [{"smiles": "c1ccc(Nc2cccc3ccccc23)cc1", "note": "[1-NPN, N-phenyl-1-naphthylamine]", "values": [{"measurement": "Kd", "setting": "GmolCSP8-V40A", "result": 11.8, "unit": "µM"}, {"measurement": "Kd", "setting": "GmolCSP8-L80A", "result": 11.7, "unit": "µM"}, {"measurement": "Kd", "setting": "GmolCSP8-T27A", "result": 11.2, "unit": "µM"}, {"measurement": "Kd", "setting": "GmolCSP8-L30A", "result": 14.4, "unit": "µM"}, {"measurement": "Kd", "setting": "rGmolCSP8", "result": 13.8, "unit": "µM"}]}]}
